In data set [1] the test system is barnyard glass. Kind of data set: Test Example 2: herbicidal efficacy on rice paddy weeds post-emergence. In kind it is in vivo, Echinochloa crus-galli. Particulars: 21 days after treatment. In short, it runs like this:
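Efficacy on paddy weeds was scored on a 0 to 4 growth-inhibition scale: 4 for 90%-100%, 3 for 70%-89%, 2 for 40%-69%, 1 for 1%-39% and 0 for 0%. Barnyard glass was grown in clay loam in 75 cm^2 pots under 5 cm of water in a hot house. It was compared with untreated pots 21 days after treatment.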

Data set [2] has as its system bulrush. Kind of data set: Test Example 1: herbicidal efficacy on rice paddy weeds pre-emergence. In kind it is in vivo, Scirpus juncoides. The note with it: 21 days.
Data set [3] has as its system false pimpernel. Put plainly: Test Example 2: herbicidal efficacy on rice paddy weeds post-emergence. The note with it: 21 days after treatment. In kind it is in vivo, Lindernia pyxidaria.
The subject of data set [4] is paddy rice plant (cultivar: Nihonbare). Kind of data set: Test Example 3: phytotoxicity test for transplanted paddy rice plant. In kind it is in vivo. The note with it: 21 days after treatment; for Phytotoxicity to paddy rice: transplanted rice. The essentials:
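Clay loam soil was placed in a 75 cm^2 plastic pot and flooded to a water depth of 5 cm. Two Nihonbare paddy rice plants at the two-leaf stage were transplanted 1 cm deep and grown in a hot house. After treatment, pots stayed in the hot house for 21 days, and phytotoxicity was then graded against an untreated control.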

In data set [5] the test system is bulrush. Kind of data set: Test Example 2: herbicidal efficacy on rice paddy weeds post-emergence. In kind it is in vivo, Scirpus juncoides. Particulars: 21 days after treatment.
Data set [6] relates to false pimpernel. Put plainly: Test Example 1: herbicidal efficacy on rice paddy weeds pre-emergence. The format is in vivo, Lindernia pyxidaria. The note with it: 21 days.
The mark [7] stands for this setting: dosage 1000 g/ha, post-emergence, one leaf stage.
Where [8] appears, read: dosage 1000 g/ha, treated 5 days after transplantation.
Setting [9] is: dosage 300 g/ha, post-emergence, one leaf stage.
The mark [10] stands for this setting: dosage 1000 g/ha active ingredient, post-emergence treatment at one leaf stage, vs untreated control.
Where [11] appears, read: dosage 1000 g/ha active ingredient, vs untreated control.

The results in this text go back to US20080274892A1, “Novel Haloalkylsulfonanilide Derivative, Herbicide, and Method of Use Thereof” (priority 2005, published 2008).

Consider `CC(C)COC(=O)N(c1ccccc1CN1CC2(CCCC2C)OC1=O)S(=O)(=O)C(F)(F)F` (stereo not drawn) [Compound 1-161], for which, in data set [1] (setting [7]), the “Burnyard grass post (herbicidal efficacy grade)” value (“Burnyard grass post” below) is given as 4 (90%-100% of herbicidal efficacy or phytotoxicity). In data set [2] (dosage 1000 g/ha), the “Bulrush pre (herbicidal efficacy grade)” value was 4 (90%-100% of herbicidal efficacy or phytotoxicity). Further, in data set [3] (setting [7]), the “False pimpernel post (herbicidal efficacy grade)” value (from here on “False pimpernel post”) was 4 (90%-100% of herbicidal efficacy or phytotoxicity). For the same molecule, the “Phytotoxicity to paddy rice” value in data set [4] (setting [8]) was 1 (1%-39% of herbicidal efficacy or phytotoxicity). Besides, in data set [5] (setting [7]), the “Bulrush post (herbicidal efficacy grade)” value is on record as 4 (90%-100% of herbicidal efficacy or phytotoxicity). For the same molecule, the “False pimpernel pre (herbicidal efficacy grade)” value (“False pimpernel pre” below) in data set [6] (dosage 1000 g/ha) is 4 (90%-100% of herbicidal efficacy or phytotoxicity).

On to `CC1CCCC12CN(Cc1ccccc1NS(=O)(=O)C(F)(F)F)C(=O)O2` (stereo not drawn) [Compound 1-160], for which, in data set [1] (setting [9]), the “Burnyard grass post” value is 4 (90%-100% of herbicidal efficacy or phytotoxicity). Besides, in data set [2] (dosage 300 g/ha), the “Bulrush pre (herbicidal efficacy grade)” value is 4 (90%-100% of herbicidal efficacy or phytotoxicity). Also, the “False pimpernel post” value in data set [3] (setting [9]) is 4 (90%-100% of herbicidal efficacy or phytotoxicity). Further, the “Phytotoxicity to paddy rice” value in data set [4] (dosage 300 g/ha) is recorded as 1 (1%-39% of herbicidal efficacy or phytotoxicity). The “Bulrush post (herbicidal efficacy grade)” value in data set [5] (setting [9]) is reported as 4 (90%-100% of herbicidal efficacy or phytotoxicity). Moreover, the “False pimpernel pre” value in data set [6] (dosage 300 g/ha) was 4 (90%-100% of herbicidal efficacy or phytotoxicity).

For `CC1(C)CN(Cc2cc3c(cc2NS(=O)(=O)C(F)(F)F)OCO3)C(=O)O1` [1-215], the “Burnyard grass post” value in data set [1] (setting [10]) was 1 (1%-39% of herbicidal efficacy or phytotoxicity). Further, the “Bulrush pre (herbicidal efficacy grade)” value in data set [2] (setting [11]) is reported as 2 (40%-69% of herbicidal efficacy or phytotoxicity). Besides, the “False pimpernel post” value in data set [3] (setting [10]) was 3 (70%-89% of herbicidal efficacy or phytotoxicity). For the same molecule, in data set [4] (dosage 1000 g/ha active ingredient, treated 5 days after transplantation, vs untreated control), the “Phytotoxicity to paddy rice (grade)” value is 0 (0% of herbicidal efficacy or phytotoxicity). Further, in data set [5] (setting [10]), the “Bulrush post (herbicidal efficacy grade)” value is 2 (40%-69% of herbicidal efficacy or phytotoxicity). The “False pimpernel pre” value in data set [6] (setting [11]) is recorded as 4 (90%-100% of herbicidal efficacy or phytotoxicity).

Take `CC(C)CC1(C)CN(Cc2ccccc2NS(=O)(=O)C(F)(F)F)C(=O)O1` (racemic) [Compound 1-103]: the “Burnyard grass post” value in data set [1] (setting [9]) is 4 (90%-100% of herbicidal efficacy or phytotoxicity). Also, the “Bulrush pre (herbicidal efficacy grade)” value in data set [2] (dosage 300 g/ha) is 4 (90%-100% of herbicidal efficacy or phytotoxicity). For the same molecule, the “False pimpernel post” value in data set [3] (setting [9]) was 4 (90%-100% of herbicidal efficacy or phytotoxicity). Moreover, in data set [4] (dosage 300 g/ha), the “Phytotoxicity to paddy rice” value was 2 (40%-69% of herbicidal efficacy or phytotoxicity). In data set [5] (setting [9]), the “Bulrush post (herbicidal efficacy grade)” value is recorded as 4 (90%-100% of herbicidal efficacy or phytotoxicity). Also, in data set [6] (dosage 300 g/ha), the “False pimpernel pre” value is on record as 4 (90%-100% of herbicidal efficacy or phytotoxicity).

For the molecule `CC(=O)OCC1CN(Cc2ccccc2N(C(=O)OCC(C)C)S(=O)(=O)C(F)(F)F)C(=O)O1` (stereo not drawn) [Compound 1-38], the “Burnyard grass post” value in data set [1] (setting [9]) is listed as 1 (1%-39% of herbicidal efficacy or phytotoxicity). Also, the “Bulrush pre (herbicidal efficacy grade)” value in data set [2] (dosage 300 g/ha) is recorded as 3 (70%-89% of herbicidal efficacy or phytotoxicity). In addition, the “False pimpernel post” value in data set [3] (setting [9]) is 1 (1%-39% of herbicidal efficacy or phytotoxicity). In addition, in data set [4] (dosage 300 g/ha), the “Phytotoxicity to paddy rice” value is listed as 0 (0% of herbicidal efficacy or phytotoxicity). For the same molecule, the “Bulrush post (herbicidal efficacy grade)” value in data set [5] (setting [9]) is given as 3 (70%-89% of herbicidal efficacy or phytotoxicity). In addition, in data set [6] (dosage 300 g/ha), the “False pimpernel pre” value was 2 (40%-69% of herbicidal efficacy or phytotoxicity).

On to `COCC1CN(Cc2ccccc2N(C(=O)OCC(C)C)S(=O)(=O)C(F)(F)F)C(=O)O1` (stereo not drawn) [Compound 1-36], for which, in data set [1] (setting [7]), the “Burnyard grass post” value is listed as 4 (90%-100% of herbicidal efficacy or phytotoxicity). For the same molecule, the “Bulrush pre (herbicidal efficacy grade)” value in data set [2] (dosage 1000 g/ha) is given as 4 (90%-100% of herbicidal efficacy or phytotoxicity). Moreover, the “False pimpernel post” value in data set [3] (setting [7]) was 4 (90%-100% of herbicidal efficacy or phytotoxicity). In addition, the “Phytotoxicity to paddy rice” value in data set [4] (setting [8]) is recorded as 1 (1%-39% of herbicidal efficacy or phytotoxicity). In addition, the “Bulrush post (herbicidal efficacy grade)” value in data set [5] (setting [7]) is given as 4 (90%-100% of herbicidal efficacy or phytotoxicity). In addition, the “False pimpernel pre” value in data set [6] (dosage 1000 g/ha) was 4 (90%-100% of herbicidal efficacy or phytotoxicity).

Turning to `COC1N(Cc2ccccc2NS(=O)(=O)C(F)(F)F)C(=O)OC1(C)C` (stereo not drawn) [Compound No. 1-195, 4-methoxy-5,5-dimethyl-3-[2-(trifluoromethanesulfonylamino)benzyl]oxazolidin-2-one], the “Burnyard grass post” value in data set [1] (setting [9]) is 1 (1%-39% of herbicidal efficacy or phytotoxicity). Moreover, in data set [2] (dosage 300 g/ha), the “Bulrush pre (herbicidal efficacy grade)” value is 4 (90%-100% of herbicidal efficacy or phytotoxicity). Besides, in data set [3] (setting [9]), the “False pimpernel post” value was 3 (70%-89% of herbicidal efficacy or phytotoxicity). Also, the “Phytotoxicity to paddy rice” value in data set [4] (dosage 300 g/ha) was 2 (40%-69% of herbicidal efficacy or phytotoxicity). The “Bulrush post (herbicidal efficacy grade)” value in data set [5] (setting [9]) is listed as 4 (90%-100% of herbicidal efficacy or phytotoxicity). For the same molecule, in data set [6] (dosage 300 g/ha), the “False pimpernel pre” value was 1 (1%-39% of herbicidal efficacy or phytotoxicity).

For `CC(C)COC(=O)N(c1ccccc1CN1CC(C)(C2OC2(C)C)OC1=O)S(=O)(=O)C(F)(F)F` (stereo not drawn) [Compound 1-177], in data set [1] (setting [7]), the “Burnyard grass post” value is listed as 4 (90%-100% of herbicidal efficacy or phytotoxicity). For the same molecule, in data set [2] (dosage 1000 g/ha), the “Bulrush pre (herbicidal efficacy grade)” value is 4 (90%-100% of herbicidal efficacy or phytotoxicity). The “False pimpernel post” value in data set [3] (setting [7]) was 4 (90%-100% of herbicidal efficacy or phytotoxicity). Further, the “Phytotoxicity to paddy rice” value in data set [4] (setting [8]) is 1 (1%-39% of herbicidal efficacy or phytotoxicity). Moreover, the “Bulrush post (herbicidal efficacy grade)” value in data set [5] (setting [7]) is given as 4 (90%-100% of herbicidal efficacy or phytotoxicity). For the same molecule, in data set [6] (dosage 1000 g/ha), the “False pimpernel pre” value was 4 (90%-100% of herbicidal efficacy or phytotoxicity).

`CC(C)COC(=O)N(c1ccccc1CN1CC(C)(C(C)(C)C)OC1=O)S(=O)(=O)C(F)(F)F` (stereo not drawn) [Compound 1-70]: in data set [1] (setting [7]), the “Burnyard grass post” value is 4 (90%-100% of herbicidal efficacy or phytotoxicity). The “Bulrush pre (herbicidal efficacy grade)” value in data set [2] (dosage 1000 g/ha) is given as 4 (90%-100% of herbicidal efficacy or phytotoxicity). The “False pimpernel post” value in data set [3] (setting [7]) is reported as 4 (90%-100% of herbicidal efficacy or phytotoxicity). The “Phytotoxicity to paddy rice” value in data set [4] (setting [8]) was 1 (1%-39% of herbicidal efficacy or phytotoxicity). Further, in data set [5] (setting [7]), the “Bulrush post (herbicidal efficacy grade)” value was 4 (90%-100% of herbicidal efficacy or phytotoxicity). Further, the “False pimpernel pre” value in data set [6] (dosage 1000 g/ha) is reported as 4 (90%-100% of herbicidal efficacy or phytotoxicity).

For `CC(C)COC(=O)N(c1ccccc1CN1CC(COc2ccccc2)OC1=O)S(=O)(=O)C(F)(F)F` (racemic) [Compound 1-52], the “Burnyard grass post” value in data set [1] (setting [9]) is on record as 3 (70%-89% of herbicidal efficacy or phytotoxicity). Moreover, the “Bulrush pre (herbicidal efficacy grade)” value in data set [2] (dosage 300 g/ha) was 4 (90%-100% of herbicidal efficacy or phytotoxicity). Moreover, the “False pimpernel post” value in data set [3] (setting [9]) is 4 (90%-100% of herbicidal efficacy or phytotoxicity). In addition, the “Phytotoxicity to paddy rice” value in data set [4] (dosage 300 g/ha) was 0 (0% of herbicidal efficacy or phytotoxicity). Moreover, in data set [5] (setting [9]), the “Bulrush post (herbicidal efficacy grade)” value is given as 4 (90%-100% of herbicidal efficacy or phytotoxicity). For the same molecule, the “False pimpernel pre” value in data set [6] (dosage 300 g/ha) was 4 (90%-100% of herbicidal efficacy or phytotoxicity).

As for `CC[C@H]1CN(Cc2ccccc2NS(=O)(=O)C(F)(F)F)C(=O)O1` [Compound 1-55], the “Burnyard grass post” value in data set [1] (setting [7]) is listed as 4 (90%-100% of herbicidal efficacy or phytotoxicity). For the same molecule, in data set [2] (dosage 1000 g/ha), the “Bulrush pre (herbicidal efficacy grade)” value is listed as 4 (90%-100% of herbicidal efficacy or phytotoxicity). The “False pimpernel post” value in data set [3] (setting [7]) was 4 (90%-100% of herbicidal efficacy or phytotoxicity). The “Phytotoxicity to paddy rice” value in data set [4] (setting [8]) is listed as 1 (1%-39% of herbicidal efficacy or phytotoxicity). Further, in data set [5] (setting [7]), the “Bulrush post (herbicidal efficacy grade)” value is recorded as 4 (90%-100% of herbicidal efficacy or phytotoxicity). In addition, the “False pimpernel pre” value in data set [6] (dosage 1000 g/ha) is 4 (90%-100% of herbicidal efficacy or phytotoxicity).

`CCCC1COC(=O)N1Cc1ccccc1N(C(=O)OCC(C)C)S(=O)(=O)C(F)(F)F` (stereo not drawn) [Compound 1-8]: the “Burnyard grass post” value in data set [1] (setting [9]) was 4 (90%-100% of herbicidal efficacy or phytotoxicity). Besides, the “Bulrush pre (herbicidal efficacy grade)” value in data set [2] (dosage 300 g/ha) is listed as 4 (90%-100% of herbicidal efficacy or phytotoxicity). The “False pimpernel post” value in data set [3] (setting [9]) was 2 (40%-69% of herbicidal efficacy or phytotoxicity). Besides, in data set [4] (dosage 300 g/ha), the “Phytotoxicity to paddy rice” value is given as 0 (0% of herbicidal efficacy or phytotoxicity). In addition, the “Bulrush post (herbicidal efficacy grade)” value in data set [5] (setting [9]) was 4 (90%-100% of herbicidal efficacy or phytotoxicity). For the same molecule, in data set [6] (dosage 300 g/ha), the “False pimpernel pre” value is 4 (90%-100% of herbicidal efficacy or phytotoxicity).
